Consider one substance from patent publication US6610791B2, “Photosensitive compound and photosensitive resin” (Toyo Gosai Kogyo Co., Ltd., priority 2000, dated 2003).

A short description of the series: Measurement of solubility in water at 25° C. Format: physicochemical. The procedure:
Measurement of [5-(sodium 4-azidobenzylidene-2-sulfonate)-3-(N-(4,4′-dimethoxybutyl)carbamoyl)methyl]-rhodanine in Terms of Solubility in Water and Molar Absorption Coefficient
Measurement of solubility in water at 25° C. was carried out for the compound obtained in Example 3 or 6, and for the compound, which was obtained through the method of Example 2 described in Japanese Patent Application Laid-Open (kokai) No. 10-310769, represented by the following formula. [drawing 17]
Further, UV spectra were measured for the two compounds in water serving as a solvent so as to measure the molar absorption coefficient ε at a wavelength of maximum absorption.

In the case of “[5-(sodium 4-azidobenzylidene-2-sulfonate)-3-(N-(4,4′-dimethoxybutyl)carbamoyl)methyl]rhodanine”, where the note is “in 100 g of water”, the solubility in water came to 5.4 g. The “solubility of the former compound relative to the latter (reference) compound” value (water, ratio of the invention compound to the reference compound) is “approximately five”.
